# Assay results: EP4733303A1, “MUSCARINIC M4 RECEPTOR AGONIST AND USE THEREOF” (Haisco Pharmaceutical Group Co., Ltd., priority 2023, dated 2024)
# Molecular target: T1, M4 receptor (Homo sapiens, UniProt P08173)
# T1 construct: expressed in transfected cells; host or cells: CHO (M4-CHO cells)
# T1 sequence (P08173 1-479): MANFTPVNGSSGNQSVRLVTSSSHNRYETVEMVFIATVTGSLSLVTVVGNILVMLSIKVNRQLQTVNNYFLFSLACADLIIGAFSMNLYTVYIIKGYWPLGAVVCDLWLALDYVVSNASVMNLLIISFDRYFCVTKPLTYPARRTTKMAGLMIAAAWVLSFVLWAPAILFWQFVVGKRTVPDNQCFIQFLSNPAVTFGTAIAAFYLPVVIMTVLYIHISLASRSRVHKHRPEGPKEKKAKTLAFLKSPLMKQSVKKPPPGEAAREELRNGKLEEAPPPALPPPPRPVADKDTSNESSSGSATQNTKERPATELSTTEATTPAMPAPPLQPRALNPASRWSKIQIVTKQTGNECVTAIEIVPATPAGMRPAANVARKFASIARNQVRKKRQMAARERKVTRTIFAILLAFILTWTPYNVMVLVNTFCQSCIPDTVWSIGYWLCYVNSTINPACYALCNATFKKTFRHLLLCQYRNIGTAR
# Experiment: PAM agonistic activity of compound on M4 receptor (FLIPR Calcium 6 assay in M4-CHO cells)
# Assay type: cell-based
# Details: with acetylcholine (Ach), final concentration 3 nM
# Protocol: • 1). Cell plating: M4-CHO cells were digested, collected, and resuspended. After cell counting, the cell suspension was seeded into a 384-well cell plate at a density of: 1.2 × 10^4 cells/25 µL/well. The cell plate was then cultured in a 37°C, 5% CO2 incubator for about 16-20 h. • 2). Day 2: Assay Buffer was prepared according to the instructions of the FLIPR Calcium 6 Assay Kit. Component A (20×) was thawed to room temperature and diluted with the Assay Buffer to prepare a loading buffer (1×), which was stored at room temperature until use. • 3). The culture medium was removed from the cell plate. 40 µL of the loading buffer (1×) was quickly added to each well. The cell plate was then centrifuged and incubated at 37°C in the dark for 120 min. • 4). Working solutions of the positive control compound and the test compounds were prepared. An acetylcholine (Ach) agonist compound solution was prepared (final concentration: 3 nM). The PAM compound and the Ach agonist solution were mixed at a 1 : 1 ratio, and the mixture was transferred into a 384-well compound source plate at 20 µL per well. • 5). The cell plate, the compound source plate, and the pipette tips were placed into the corresponding positions within the FLIPR instrument. 10 µL of the diluted compound from step 4 was added into each experimental well using the FLIPR Tetra. Data was collected at the wavelength of 515 nm-575 nm. • 6). The signal values were plotted against the compound concentrations. Nonlinear regression analysis was performed using GraphPad Prism software for curve fitting and EC50 calculation.
# The experimental results are shown in Table 1, where A represents EC50 < […]; B represents 100 nM ≤ EC50 < 500 nM, and C represents 500 nM ≤ EC50. Table 1. Agonistic activity of compounds on M4 receptor
row,EC50,SMILES
1,< 100 nM,Cc1cc(C)c2c(n1)CN(C(=O)CC1CN(c3ccnc(-c4ccsc4)c3)C1)C2 [Compound 1]
2,< 100 nM,Cc1cc(C)c2c(n1)CN(C(=O)CC1CN(c3ccnc(-c4cnoc4)c3)C1)C2 [Compound 27]
3,< 100 nM,Cc1cc(C)c2c(n1)CN(C(=O)CC1CN(c3ccnc(-n4cccn4)c3)C1)C2 [Compound 56]
4,< 100 nM,Cc1cc(C)c2c(n1)CN(C(=O)CC1CN(c3ccnc(O[C@H]4CCOC4)c3)C1)C2 [Compound 52]
5,< 100 nM,Cc1cc(C)c2c(n1)CN(C(=O)CC1CN(c3ccnc(Oc4cnn(C(F)F)c4)c3)C1)C2 [Compound 37]
6,< 100 nM,Cc1cc(C)c2c(n1)CN(C(=O)CC1CN(c3ccnc(-n4cc(C)nc4C)c3)C1)C2 [Compound 75]
7,< 100 nM,Cc1cc(C)c2c(n1)CN(C(=O)CC1CN(c3ccnc(-n4cncn4)c3)C1)C2 [Compound 58]
8,< 100 nM,Cc1cc(C)c2c(n1)CN(C(=O)CC1CN(c3ccnc(-c4cnsc4)c3)C1)C2 [Compound 21]
9,< 100 nM,Cc1cc(C)c2c(n1)CN(C(=O)CC1CN(c3ccnc(-n4nc(C)cc4C)c3)C1)C2 [Compound 30]
10,< 100 nM,Cc1cc(C)c2c(n1)CN(C(=O)CC1CN(c3ccnc(-c4ncnn4C)c3)C1)C2 [Compound 97]
11,< 100 nM,Cc1cc(=O)n(C)c2c1CN(C(=O)CC1CN(c3ccnc(OC4CC4)c3)C1)C2 [Compound 138]
12,< 100 nM,C=C1CC(Oc2cc(N3CC(CC(=O)N4Cc5nc(C)cc(C)c5C4)C3)ccn2)C1 [Compound 121]
13,< 100 nM,Cc1cc(-c2cnn(C)c2)nc2c1CN(C(=O)CC1CN(c3ccnc(OC4CCOC4)c3)C1)C2 (stereo not drawn) [Compound 169]
14,< 100 nM,"Cc1cc(C)c2c(n1)CN(C(=O)CC1CN(c3ccc4c(c3)C(F)C(F)C4)C1)C2 (racemic) [Compound 12, isomer 1]"
15,< 100 nM,Cc1cc(C)c2c(n1)CN(C(=O)CC1CN(c3ccnc(-c4ccnn4C)c3)C1)C2 [Compound 22]
16,< 100 nM,Cc1cc(C)c2c(n1)CN(C(=O)CC1CN(c3ccnc(-n4ccc(F)n4)c3)C1)C2 [Compound 76]
17,< 100 nM,Cc1cc(C)c2c(n1)CN(C(=O)CC1CN(c3ccnc(-n4cnc(C)n4)c3)C1)C2 [Compound 54]
18,< 100 nM,Cc1cc(C)c2c(n1)CN(C(=O)CC1CN(c3ccnc(NC4CC(F)(F)C4)c3)C1)C2 [Compound 67]
19,< 100 nM,Cc1cc(C)c2c(n1)CN(C(=O)CC1CN(c3ccnc(-c4cnn(C)c4)c3)C1)C2 [Compound 7]
20,< 100 nM,Cc1nc(C#N)nc2c1CN(C(=O)CC1CN(c3ccnc(OC4CC(F)(F)C4)c3)C1)C2 [Compound 115]
21,< 100 nM,Cc1cc(C)c2c(n1)CN(C(=O)CC1CN(c3ccnc(-n4cnnc4)c3)C1)C2 [Compound 108]
22,< 100 nM,"Cc1cc(C2CCOC2)nc2c1CN(C(=O)CC1CN(c3ccnc(OC4CC(F)(F)C4)c3)C1)C2 (single isomer, unassigned) [Compound 155]"
23,< 100 nM,Cc1coc(-c2cc(N3CC(CC(=O)N4Cc5nc(C)cc(C)c5C4)C3)ccn2)n1 [Compound 78]
24,< 100 nM,Cc1cc(S(C)(=O)=O)nc2c1CN(C(=O)CC1CN(c3ccnc(OC4CC(F)(F)C4)c3)C1)C2 [Compound 188]
25,< 100 nM,Cc1cc(C)c2c(n1)CN(C(=O)CC1CN(c3ccnc(OC4CC4)c3)C1)C2 [Compound 49]
26,< 100 nM,Cc1cc(-c2cnn(C)c2)nc2c1CN(C(=O)CC1CN(c3ccnc(OC4CCOC4)c3)C1)C2 (stereo not drawn) [Compound 170]

# Further lines, the molecule ahead of its results:
row,SMILES,EC50
1,Cc1c2c(n(C)c(=O)c1F)CN(C(=O)CC1CN(c3ccnc(OC4CCOC4)c3)C1)C2 (stereo not drawn) [Compound 210],< 100 nM
2,Cc1cc(C)c2c(n1)CN(C(=O)CC1CN(c3ccnc(-c4noc(C(F)(F)F)n4)c3)C1)C2 [Compound 39],< 100 nM
3,Cc1cc(=O)n(C)c2c1CN(C(=O)OC1CN(c3ccnc(OC4CC(F)(F)C4)c3)C1)C2 [Compound 139],< 100 nM
4,Cc1ccn(-c2cc(N3CC(CC(=O)N4Cc5nc(C)c6c(c5C4)CCC6)C3)ccn2)n1 [Compound 87],< 100 nM
5,Cc1cc(C)c2c(n1)CN(C(=O)CC1CN(c3ccnc(-c4cnn(C(F)F)c4)c3)C1)C2 [Compound 5],< 100 nM
6,Cc1c2c(n(C(F)F)c(=O)c1F)CN(C(=O)CC1CN(c3ccnc(OC4CCOC4)c3)C1)C2 (stereo not drawn) [Compound 198],< 100 nM
7,Cc1ccn(-c2cc(N3CC(CC(=O)N4Cc5nc(COC6COC6)cc(C)c5C4)C3)ccn2)n1 [Compound 85],< 100 nM
8,Cc1cc(C)c2c(n1)CN(C(=O)CC1CN(c3ccnc(-n4cc(C(F)(F)F)nc4C)c3)C1)C2 [Compound 46],< 100 nM
9,COc1nc(C)c2c(n1)CN(C(=O)CC1CN(c3ccnc(OC4CC(F)(F)C4)c3)C1)C2 [Compound 137],< 100 nM
10,Cc1cc(=O)n(C)c2c1CN(C(=O)CC1CN(c3ccnc(O[C@H]4CCOC4)c3)C1)C2 [Compound 117],< 100 nM
11,Cc1cc(C)c2c(n1)CN(C(=O)CC1CN(c3ccnc(-n4ccc(C(F)F)n4)c3)C1)C2 [Compound 134],< 100 nM
12,Cc1ccn(-c2cc(N3CC(CC(=O)N4Cc5nc(COC6CC6)cc(C)c5C4)C3)ccn2)n1 [Compound 91],< 100 nM
13,Cc1cc(C)c2c(n1)CN(C(=O)CC1CN(c3ccnc(-n4c(C)nnc4C(F)(F)F)c3)C1)C2 [Compound 43],< 100 nM
14,Cc1cc(-c2ccn(C)n2)nc2c1CN(C(=O)CC1CN(c3ccnc(C(F)(F)F)c3)C1)C2 [Compound 112],< 100 nM
15,Cc1cc(C)c2c(n1)CN(C(=O)CC1CN(c3cc(-n4ccc(F)n4)ncc3F)C1)C2 [Compound 149],< 100 nM
16,Cc1ncn(-c2cc(N3CC(CC(=O)N4Cc5c(C)c(F)c(=O)n(C)c5C4)C3)ccn2)n1 [Compound 211],< 100 nM
17,Cc1cc(C)c2c(n1)CN(C(=O)CC1CN(c3ccnc(-c4cc(C(F)(F)F)n(C)n4)c3)C1)C2 [Compound 14],< 100 nM

row,SMILES,EC50
1,Cc1cc(C#N)c(F)c2c1CN(C(=O)CC1CN(c3ccnc(OC4CC(F)(F)C4)c3)C1)C2 [Compound 103],< 100 nM
2,Cc1c2c(n(C)c(=O)c1F)CN(C(=O)CC1CN(c3ccnc(C(F)(F)F)c3)C1)C2 [Compound 176],< 100 nM
3,Cc1c2c(n(C(F)F)c(=O)c1F)CN(C(=O)CC1CN(c3ccnc(OC4CC(=C(F)F)C4)c3)C1)C2 (stereo not drawn) [Compound 201],< 100 nM
4,Cc1cc(C)c2c(n1)CN(C(=O)CC1CN(c3ccnc(-c4nc(C(F)(F)F)nn4C)c3)C1)C2 [Compound 44],< 100 nM
5,"Cc1ccn(-c2cc(N3CC(CC(=O)N4Cc5nc(C6CCOC6)cc(C)c5C4)C3)ccn2)n1 (single isomer, unassigned) [Compound 185]",< 100 nM
6,"Cc1cc(C2CCOC2)nc2c1CN(C(=O)CC1CN(c3ccnc(C(F)(F)F)c3)C1)C2 (single isomer, unassigned) [Compound 152]",< 100 nM
7,Cc1nc2c(c(N3CCC3)n1)CN(C(=O)CC1CN(c3ccnc(-n4nccc4C)c3)C1)C2 [Compound 62],< 100 nM
8,Cc1nc(C#N)c2c(n1)CN(C(=O)CC1CN(c3ccnc(OC4CC(F)(F)C4)c3)C1)C2 [Compound 107],< 100 nM
9,Cc1cc(C)c2c(n1)CN(C(=O)CC1CN(c3ccnc(-n4cnc(C(F)(F)F)n4)c3)C1)C2 [Compound 47],< 100 nM
10,Cc1c2c(nc3c1CN(C(=O)CC1CN(c4ccnc(-n5cccn5)c4)C1)C3)CCC2 [Compound 95],< 100 nM
11,Cc1ncn(-c2nc(C)c3c(n2)CN(C(=O)CC2CN(c4ccnc(OC5CC(F)(F)C5)c4)C2)C3)n1 [Compound 163],< 100 nM
12,Cc1cc(C)c2c(n1)CN(C(=O)CC1CN(c3cc(-n4ccc(C)n4)ncn3)C1)C2 [Compound 48],< 100 nM
13,Cc1cc(C)c2c(n1)CN(C(=O)CC1CN(c3ccnc(-c4cc(C(F)(F)F)nn4C)c3)C1)C2 [Compound 6],< 100 nM
14,Cc1c2c(n(C)c(=O)c1F)CN(C(=O)CC1CN(c3ccnc(Oc4cnn(C)c4)c3)C1)C2 [Compound 214],< 100 nM
15,Cc1ccn(-c2cc(N3CC(CC(=O)N4Cc5c(C)cc(=O)n(C(F)F)c5C4)C3)ccn2)n1 [Compound 179],< 100 nM
16,Cc1cc(=O)n(C)c2c1CN(C(=O)CC1CN(c3ccnc(C(F)(F)F)c3)C1)C2 [Compound 100],< 100 nM
17,Cn1c2c(c(F)cc1=O)CN(C(=O)CC1CN(c3ccnc(OC4CC(F)(F)C4)c3)C1)C2 [Compound 141],< 100 nM
